{"source": "paper PMC9364112", "about": "“A natural fusion of flavodiiron, rubredoxin, and rubredoxin oxidoreductase domains is a self-sufficient water-forming oxidase of Trichomonas vaginalis” (The Journal of Biological Chemistry, 2022)", "test_in_all_cases": "LC-MS quantification of bound flavin", "type_in_all_cases": "binding", "key": {"[1]": {"target": "T1, TvFDPF1 (Trichomonas vaginalis, UniProt A2EP06)", "T1 construct": "gene TVAG_263800; full length, 871 residues, C-terminal His6 (pET30a, E. coli BL21 Star DE3); 272 kDa by gel filtration", "T1 sequence (A2EP06 1-871)": "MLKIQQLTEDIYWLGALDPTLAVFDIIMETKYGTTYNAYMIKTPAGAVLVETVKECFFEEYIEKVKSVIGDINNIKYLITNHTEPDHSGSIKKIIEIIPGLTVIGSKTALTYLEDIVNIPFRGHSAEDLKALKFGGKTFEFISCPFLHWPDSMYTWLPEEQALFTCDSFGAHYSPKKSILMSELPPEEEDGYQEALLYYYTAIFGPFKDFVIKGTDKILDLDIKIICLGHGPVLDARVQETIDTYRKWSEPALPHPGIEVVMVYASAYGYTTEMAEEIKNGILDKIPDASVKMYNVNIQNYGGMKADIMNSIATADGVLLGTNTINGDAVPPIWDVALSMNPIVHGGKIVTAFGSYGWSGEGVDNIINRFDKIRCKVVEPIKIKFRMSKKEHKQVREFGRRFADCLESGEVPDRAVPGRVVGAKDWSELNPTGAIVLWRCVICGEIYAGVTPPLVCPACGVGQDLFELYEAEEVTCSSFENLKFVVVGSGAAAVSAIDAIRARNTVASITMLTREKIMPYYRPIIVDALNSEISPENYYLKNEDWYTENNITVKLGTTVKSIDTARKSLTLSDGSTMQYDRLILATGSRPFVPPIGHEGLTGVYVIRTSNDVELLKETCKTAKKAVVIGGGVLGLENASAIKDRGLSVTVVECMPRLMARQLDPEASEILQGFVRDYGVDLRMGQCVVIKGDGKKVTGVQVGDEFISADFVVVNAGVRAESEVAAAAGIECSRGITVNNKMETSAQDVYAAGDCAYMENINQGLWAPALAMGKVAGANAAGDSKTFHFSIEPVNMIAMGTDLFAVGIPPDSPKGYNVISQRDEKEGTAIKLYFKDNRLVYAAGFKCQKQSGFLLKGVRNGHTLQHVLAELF", "conditions": "co-purified cofactor", "description": "LC-MS quantification of bound flavin on TvFDPF1"}, "[2]": {"target": "T2, TvFDPF3 (holoTvFDPF3) (Trichomonas vaginalis, UniProt A2E972)", "T2 construct": "gene TVAG_121610; full length, 871 residues, C-terminal His6 (pET30a, E. coli BL21 Star DE3), ~100 kDa on SDS-PAGE; FDP-core head-to-tail dimer; holo preparation with full FAD/FMN", "T2 sequence (A2E972 1-871)": "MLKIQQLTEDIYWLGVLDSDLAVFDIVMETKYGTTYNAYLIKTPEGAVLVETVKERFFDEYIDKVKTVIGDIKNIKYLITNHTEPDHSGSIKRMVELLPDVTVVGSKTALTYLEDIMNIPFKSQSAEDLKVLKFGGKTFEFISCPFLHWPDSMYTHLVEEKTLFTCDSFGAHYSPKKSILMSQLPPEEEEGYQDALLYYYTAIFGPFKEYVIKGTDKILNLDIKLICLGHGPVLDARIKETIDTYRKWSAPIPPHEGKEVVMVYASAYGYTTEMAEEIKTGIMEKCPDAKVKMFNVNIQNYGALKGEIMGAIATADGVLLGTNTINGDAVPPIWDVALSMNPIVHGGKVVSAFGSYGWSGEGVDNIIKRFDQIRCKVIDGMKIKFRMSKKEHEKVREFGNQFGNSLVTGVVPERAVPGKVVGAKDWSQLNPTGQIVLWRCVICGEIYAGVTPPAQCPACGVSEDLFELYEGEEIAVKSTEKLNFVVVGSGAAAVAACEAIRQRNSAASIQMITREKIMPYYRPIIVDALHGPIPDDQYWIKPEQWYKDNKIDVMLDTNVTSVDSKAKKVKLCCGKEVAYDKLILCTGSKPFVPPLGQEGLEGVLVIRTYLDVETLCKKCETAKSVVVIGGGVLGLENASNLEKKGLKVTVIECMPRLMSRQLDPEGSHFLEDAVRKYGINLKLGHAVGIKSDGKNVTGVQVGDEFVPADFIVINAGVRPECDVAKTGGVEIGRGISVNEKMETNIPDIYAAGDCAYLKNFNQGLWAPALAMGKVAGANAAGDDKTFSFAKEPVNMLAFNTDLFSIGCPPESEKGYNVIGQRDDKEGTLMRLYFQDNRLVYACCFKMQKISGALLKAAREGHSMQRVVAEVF", "conditions": "co-purified cofactor, NROR domain", "description": "LC-MS quantification of bound flavin on TvFDPF3 (holoTvFDPF3)"}, "[3]": {"target": "T3, TvFDPF2 (Trichomonas vaginalis, UniProt A2EVX8)", "T3 construct": "gene TVAG_049830; full length, 871 residues, C-terminal His6 (pET30a, E. coli BL21 Star DE3); aggregation-prone; poor FAD and FMN occupancy", "T3 sequence (A2EVX8 1-871)": "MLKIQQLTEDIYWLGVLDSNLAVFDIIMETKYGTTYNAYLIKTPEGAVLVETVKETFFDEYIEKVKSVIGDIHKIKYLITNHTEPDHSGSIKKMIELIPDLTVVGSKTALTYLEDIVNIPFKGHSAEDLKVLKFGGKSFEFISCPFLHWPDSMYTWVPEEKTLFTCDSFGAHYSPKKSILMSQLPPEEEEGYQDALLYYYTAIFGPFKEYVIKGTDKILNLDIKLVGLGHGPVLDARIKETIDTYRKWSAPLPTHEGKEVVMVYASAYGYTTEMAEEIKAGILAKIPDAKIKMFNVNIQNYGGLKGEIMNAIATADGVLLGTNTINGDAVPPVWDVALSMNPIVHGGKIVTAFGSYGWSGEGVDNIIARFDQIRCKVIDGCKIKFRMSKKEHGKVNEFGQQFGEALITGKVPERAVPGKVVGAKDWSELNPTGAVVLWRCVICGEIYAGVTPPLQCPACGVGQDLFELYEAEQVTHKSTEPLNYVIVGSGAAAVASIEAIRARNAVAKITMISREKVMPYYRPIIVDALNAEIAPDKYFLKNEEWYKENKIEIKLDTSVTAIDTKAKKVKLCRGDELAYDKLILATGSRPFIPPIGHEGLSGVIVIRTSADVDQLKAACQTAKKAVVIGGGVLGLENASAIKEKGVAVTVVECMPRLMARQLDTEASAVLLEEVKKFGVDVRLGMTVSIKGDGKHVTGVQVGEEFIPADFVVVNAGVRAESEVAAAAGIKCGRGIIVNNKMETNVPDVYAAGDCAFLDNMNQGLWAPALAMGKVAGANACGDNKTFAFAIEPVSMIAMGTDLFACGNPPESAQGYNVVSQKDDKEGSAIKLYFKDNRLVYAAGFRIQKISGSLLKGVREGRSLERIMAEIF", "conditions": "co-purified cofactor, poorly occupied", "description": "LC-MS quantification of bound flavin on TvFDPF2"}}, "data": [{"molecule": "Cc1cc2nc3c(=O)[nH]c(=O)nc-3n(C[C@H](O)[C@H](O)[C@H](O)COP(=O)(O)OP(=O)(O)OC[C@H]3O[C@@H](n4cnc5c(N)ncnc54)[C@H](O)[C@@H]3O)c2cc1C", "note": "[FAD]", "values": [{"measurement": "FAD per protein monomer", "setting": "[1]", "value": "1.02 ± 0.05", "unit": "mol per mol monomer"}, {"measurement": "FAD per protein monomer", "setting": "[2]", "value": "0.94 ± 0.09", "unit": "mol per mol monomer"}, {"measurement": "FAD per protein monomer", "setting": "[3]", "value": "0.32 ± 0.05", "unit": "mol per mol monomer"}]}]}
